Source: patent publication US12545639B2, “3-substituted phenylamidine compounds, preparation and use thereof” (PI INDUSTRIES LTD., priority 2019, dated 2026)

Experiments:
[1] = system: Phakopsora pachyrhizi; test: Phakopsora pachyrhizi test in soybean, preventive, in vivo on plants; settings: in Glycine max, read-out: Efficacy (% control), disease severity compared to the untreated check
[2] = system: Colletotrichum capsici; test: Colletotrichum capsici (anthracnose) in vitro test, radial growth on potato dextrose agar; format: cell-based; settings: Colletotrichum truncatum, 168 h; 300 ppm in potato dextrose agar; 25° C., 60% relative humidity, seven days; read-out: control compared to the untreated check (radial growth)
[3] = system: Pyricularia oryzae; test: microbe, parasite or virus in culture; format: cell-based; settings: 168 h, read-out: control compared to the untreated check (radial growth)
[4] = system: Rhizoctonia solani; test: Rhizoctonia solani (rice sheath blight/potato black scurf) in vitro test, radial growth on potato dextrose agar; format: cell-based; settings: 168 h, 300 ppm in potato dextrose agar, 25° C., 60% relative humidity, seven days, read-out: control compared to the untreated check (radial growth)
[5] = system: Botrytis cinerea; test: Botrytis cinerea (gray mold) in vitro test, radial growth on potato dextrose agar; format: cell-based; settings: 168 h, 300 ppm in potato dextrose agar, 22° C., 90% relative humidity, seven days, read-out: control compared to the untreated check (radial growth)
[6] = system: Septoria lycopersici/Corynespora cassicola (CORYCA); test: Septoria lycopersici/Corynespora cassicola (CORYCA) (leaf spot of tomato) in vitro test, radial growth on potato dextrose agar; format: cell-based; settings: 168 h, 300 ppm in potato dextrose agar, 25° C., 70% relative humidity, seven days, read-out: control compared to the untreated check (radial growth)
[7] = system: Alternaria solani; test: Alternaria solani (early blight of tomato/potato) in vitro test, radial growth on potato dextrose agar; format: cell-based; settings: 168 h, 300 ppm in potato dextrose agar, 25° C., 60% relative humidity, seven days, read-out: control compared to the untreated check (radial growth)
[8] = system: Pyricularia oryzae; test: whole plant or invertebrate; format: in vivo, Pyricularia oryzae on rice; settings: read-out: Efficacy (% control), disease severity compared to the untreated check
[9] = system: Fusarium culmorum; test: Fusarium culmorum (foot rot of cereals) in vitro test, radial growth on potato dextrose agar; format: cell-based; settings: 168 h, 300 ppm in potato dextrose agar, 25° C., 60% relative humidity, seven days, read-out: control compared to the untreated check (radial growth)
How it was run: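 Compound in 0.3% DMSO mixed into potato dextrose agar, plates seeded with a 5 mm mycelial disc from an actively growing virulent culture. After seven days at 25° C and 60% relative humidity, radial growth was measured against untreated control.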

CCN(C)C=Nc1cc(Cl)cc(Cc2cccc(C)c2)c1C [Compound 94, N′-(5-chloro-2-methyl-3-(3-methylbenzyl)phenyl)-N-ethyl-N-methylformimidamide]
≥ 70%: pest or weed control at 500 ppm [1] | inhibition of growth at 300 ppm [2] | inhibition of growth at 300 ppm [3] | inhibition of growth at 300 ppm [4] | inhibition of growth at 300 ppm [5] | inhibition of growth at 300 ppm [6] | inhibition of growth at 300 ppm [7] | pest or weed control at 500 ppm [8]

CCN(C)C=Nc1cc(Cl)cc(N(C)c2ccccc2F)c1C [Compound 178, N′-(5-chloro-3-((2-fluorophenyl)(methyl)amino)-2-methylphenyl)-N-ethyl-N-methylformimidamide]
≥ 70%: pest or weed control at 500 ppm [1] | inhibition of growth at 300 ppm [3] | inhibition of growth at 300 ppm [4] | inhibition of growth at 300 ppm [5] | inhibition of growth at 300 ppm [7] | pest or weed control at 500 ppm [8]

CCN(C)C=Nc1cc(C)cc(Cc2ccccc2OC(F)(F)F)c1Cl [Compound 50, N′-(2-chloro-5-methyl-3-(2-(trifluoromethoxy)benzyl)phenyl)-N-ethyl-N-methylformimidamide]
≥ 70%: pest or weed control at 500 ppm [1] | inhibition of growth at 300 ppm [2] | inhibition of growth at 300 ppm [3] | inhibition of growth at 300 ppm [4] | inhibition of growth at 300 ppm [5] | inhibition of growth at 300 ppm [6] | inhibition of growth at 300 ppm [7] | pest or weed control at 500 ppm [8]

CCN(C)C=Nc1cc(C)cc(Cc2cc(C)cc(C)c2)c1Cl [Compound 55, N′-(2-chloro-3-(3,5-dimethylbenzyl)-5-methylphenyl)-N-ethyl-N-methylformimidamide]
≥ 70%: pest or weed control at 500 ppm [1] | inhibition of growth at 300 ppm [3] | inhibition of growth at 300 ppm [9] | inhibition of growth at 300 ppm [4] | inhibition of growth at 300 ppm [5] | inhibition of growth at 300 ppm [6] | inhibition of growth at 300 ppm [7] | pest or weed control at 500 ppm [8]

CCN(C)C=Nc1cc(OC)cc(Cc2cccc(F)c2)c1C [Compound 277, N-ethyl-N′-(3-(3-fluorobenzyl)-5-methoxy-2-methylphenyl)-N-methylformimidamide]
≥ 70%: pest or weed control at 500 ppm [1] | pest or weed control at 500 ppm [8]

CCN(C)C=Nc1cc(C)cc(Cc2ccc(OC(F)(F)F)cc2)c1Cl [Compound 52, N′-(2-chloro-5-methyl-3-(4-(trifluoromethoxy)benzyl)phenyl)-N-ethyl-N-methylformimidamide]
≥ 70%: pest or weed control at 500 ppm [1] | inhibition of growth at 300 ppm [3] | inhibition of growth at 300 ppm [9] | inhibition of growth at 300 ppm [4] | inhibition of growth at 300 ppm [5] | inhibition of growth at 300 ppm [6] | inhibition of growth at 300 ppm [7] | pest or weed control at 500 ppm [8]

CCN(C)C=Nc1cc(Cl)cc(N(C)c2cccc(Cl)c2)c1C [Compound 180, N′-(5-chloro-3-((3-chlorophenyl)(methyl)amino)-2-methylphenyl)-N-ethyl-N-methylformimidamide]
≥ 70%: inhibition of growth at 300 ppm [7] | pest or weed control at 500 ppm [8]

CCN(C)C=Nc1cc(C)cc(NCc2ccccc2C(F)(F)F)c1Cl [Compound 181, N′-(2-chloro-5-methyl-3-((2-(trifluoromethyl)benzyl)amino)phenyl)-N-ethyl-N-methylformimidamide]
≥ 70%: pest or weed control at 500 ppm [1] | inhibition of growth at 300 ppm [2] | inhibition of growth at 300 ppm [3] | inhibition of growth at 300 ppm [4] | inhibition of growth at 300 ppm [5] | inhibition of growth at 300 ppm [7] | pest or weed control at 500 ppm [8]

CCN(C)C=Nc1cc(C)cc(Cc2ccc(F)c(Cl)c2)c1Cl [Compound 54, N′-(2-chloro-3-(3-chloro-4-fluorobenzyl)-5-methylphenyl)-N-ethyl-N-methylformimidamide]
≥ 70%: pest or weed control at 500 ppm [1] | inhibition of growth at 300 ppm [3] | inhibition of growth at 300 ppm [9] | inhibition of growth at 300 ppm [4] | inhibition of growth at 300 ppm [5] | inhibition of growth at 300 ppm [6] | inhibition of growth at 300 ppm [7] | pest or weed control at 500 ppm [8]

CCN(C)C=Nc1cc(C)cc(Cc2ccc(C(F)(F)F)cc2)c1Cl [Compound 51, N′-(2-chloro-5-methyl-3-(4-(trifluoromethyl)benzyl)phenyl)-N-ethyl-N-methylformimidamide]
≥ 70%: pest or weed control at 500 ppm [1] | inhibition of growth at 300 ppm [2] | inhibition of growth at 300 ppm [3] | inhibition of growth at 300 ppm [9] | inhibition of growth at 300 ppm [4] | inhibition of growth at 300 ppm [5] | inhibition of growth at 300 ppm [6] | inhibition of growth at 300 ppm [7] | pest or weed control at 500 ppm [8]

CCN(C)C=Nc1cc(C)cc(Cc2ccccc2Br)c1C [Compound 221, N′-(3-(2-bromobenzyl)-2,5-dimethylphenyl)-N-ethyl-N-methylformimidamide]
≥ 70%: pest or weed control at 500 ppm [1] | inhibition of growth at 300 ppm [2] | inhibition of growth at 300 ppm [3] | inhibition of growth at 300 ppm [9] | inhibition of growth at 300 ppm [4] | inhibition of growth at 300 ppm [5] | inhibition of growth at 300 ppm [6] | inhibition of growth at 300 ppm [7]

CCN(C)C=Nc1cc(C)cc(Cc2cccc(C)c2)c1Cl [Compound 17, N′-(2-chloro-5-methyl-3-(3-methylbenzyl)phenyl)-N-ethyl-N-methylformimidamide]
≥ 70%: pest or weed control at 500 ppm [1] | inhibition of growth at 300 ppm [2] | inhibition of growth at 300 ppm [3] | inhibition of growth at 300 ppm [9] | inhibition of growth at 300 ppm [4] | inhibition of growth at 300 ppm [5] | inhibition of growth at 300 ppm [6] | inhibition of growth at 300 ppm [7]
